Reference: the NIST ThermoML archive (doi:10.1016/j.jct.2016.05.007)
Values joined by “and” are separate entries in the source; they are usually repeats but may differ in a detail not shown here. Equal entries are not always repeated. ± gives the expanded uncertainty stated by the source.

What was measured:
[1] = Molar enthalpy of transition or fusion; conditions: DSC
[2] = molar enthalpy of vaporization or sublimation; conditions: 298.15 K; Crystal 2; Static calorimetry
[3] = for Triple point temperature: DSC

CC(C)(C)c1ccc2c(c1)Cc1cc(C(C)(C)C)ccc1-2 [2,7-di-tert-butylfluorene]
Conditions | Molar enthalpy of transition or fusion, [1] [kcal/mol] | Triple point temperature, [3] [K]
Crystal 1 | 3.73 ± 0.0956 | 395.9 ± 0.8
Crystal 2 | 2.39 ± 0.0645 | 367 ± 0.8

Conditions | molar enthalpy [kcal/mol]
[2] | 28.66 ± 0.239

[3]
Conditions | vapor or sublimation pressure
349.14 K, Crystal 2, Calculated from knudsen effusion weight loss | 0.000106 ± 2e-05 kPa and 0.000105 ± 2e-05 kPa
351.14 K, Crystal 2, Calculated from knudsen effusion weight loss | 0.000136 ± 2.1e-05 kPa and 0.000135 ± 2.1e-05 kPa and 0.000132 ± 2.1e-05 kPa
353.3 K, Crystal 2, Calculated from knudsen effusion weight loss | 0.000169 ± 2.1e-05 kPa and 0.000171 ± 2.1e-05 kPa
355.28 K, Crystal 2, Calculated from knudsen effusion weight loss | 0.000213 ± 2.1e-05 kPa and 0.000215 ± 2.1e-05 kPa and 0.000217 ± 2.1e-05 kPa
357.2 K, Crystal 2, Calculated from knudsen effusion weight loss | 0.000271 ± 2.2e-05 kPa and 0.000267 ± 2.2e-05 kPa and 0.000261 ± 2.2e-05 kPa
359.19 K, Crystal 2, Calculated from knudsen effusion weight loss | 0.000321 ± 2.3e-05 kPa and 0.000336 ± 2.3e-05 kPa and 0.00033 ± 2.3e-05 kPa
361.14 K, Crystal 2, Calculated from knudsen effusion weight loss | 0.000408 ± 2.5e-05 kPa and 0.000409 ± 2.5e-05 kPa
363.27 K, Crystal 2, Calculated from knudsen effusion weight loss | 0.000509 ± 2.7e-05 kPa and 0.000507 ± 2.7e-05 kPa and 0.000514 ± 2.7e-05 kPa
368.2 K, Crystal 1, Calculated from knudsen effusion weight loss | 0.000805 ± 3.5e-05 kPa and 0.000816 ± 3.5e-05 kPa and 0.000828 ± 3.5e-05 kPa
368.55 K, Crystal 1, Closed cell (Static) method | 0.000873 ± 2.4e-05 kPa
369.13 K, Crystal 1, Calculated from knudsen effusion weight loss | 0.000886 ± 3.7e-05 kPa and 0.000888 ± 3.7e-05 kPa and 0.000889 ± 3.7e-05 kPa
370.26 K, Crystal 1, Calculated from knudsen effusion weight loss | 0.000975 ± 4e-05 kPa and 0.000979 ± 4e-05 kPa
370.54 K, Crystal 1, Closed cell (Static) method | 0.001055 ± 2.5e-05 kPa
371.21 K, Crystal 1, Calculated from knudsen effusion weight loss | 0.001079 ± 8.5e-05 kPa and 0.001082 ± 8.5e-05 kPa and 0.00107 ± 8.4e-05 kPa
372.21 K, Crystal 1, Calculated from knudsen effusion weight loss | 0.00118 ± 9.5e-05 kPa and 0.001178 ± 9.5e-05 kPa
372.5 K, Crystal 1, Closed cell (Static) method | 0.001246 ± 2.6e-05 kPa
374.5 K, Crystal 1, Closed cell (Static) method | 0.001492 ± 2.7e-05 kPa
376.45 K, Crystal 1, Closed cell (Static) method | 0.001778 ± 2.9e-05 kPa
378.41 K, Crystal 1, Closed cell (Static) method | 0.002106 ± 3.1e-05 kPa
380.4 K, Crystal 1, Closed cell (Static) method | 0.002524 ± 3.3e-05 kPa
382.38 K, Crystal 1, Closed cell (Static) method | 0.002965 ± 3.5e-05 kPa
384.34 K, Crystal 1, Closed cell (Static) method | 0.003492 ± 3.7e-05 kPa
386.3 K, Crystal 1, Closed cell (Static) method | 0.004126 ± 4.1e-05 kPa
388.27 K, Crystal 1, Closed cell (Static) method | 0.004862 ± 4.4e-05 kPa
390.24 K, Crystal 1, Closed cell (Static) method | 0.00567 ± 4.8e-05 kPa

[3], Closed cell (Static) method, Liquid
Conditions | vapor or sublimation pressure [kPa]
384.34 K | 0.003946 ± 4e-05
386.32 K | 0.004548 ± 4.3e-05
388.28 K | 0.005217 ± 4.6e-05
390.28 K | 0.005976 ± 5e-05
392.22 K | 0.006859 ± 5.4e-05
394.2 K | 0.007843 ± 5.9e-05
396.17 K | 0.008987 ± 6.5e-05
398.15 K | 0.01026 ± 7.1e-05
400.05 K | 0.01164 ± 7.8e-05
402.07 K | 0.01327 ± 8.6e-05
404.04 K | 0.01508 ± 9.5e-05
